From patent US10160755B2 (Plexxikon Inc., priority 2015, dated 2018)

Experiments:
FLT3-ITD = target: T1, FLT3-ITD (Homo sapiens, UniProt P36888); assay: FLT3-ITD biochemical kinase assay (AlphaScreen)
T1 construct: FLT3-ITD; Invitrogen #PV6190
T1 sequence (P36888 1-993): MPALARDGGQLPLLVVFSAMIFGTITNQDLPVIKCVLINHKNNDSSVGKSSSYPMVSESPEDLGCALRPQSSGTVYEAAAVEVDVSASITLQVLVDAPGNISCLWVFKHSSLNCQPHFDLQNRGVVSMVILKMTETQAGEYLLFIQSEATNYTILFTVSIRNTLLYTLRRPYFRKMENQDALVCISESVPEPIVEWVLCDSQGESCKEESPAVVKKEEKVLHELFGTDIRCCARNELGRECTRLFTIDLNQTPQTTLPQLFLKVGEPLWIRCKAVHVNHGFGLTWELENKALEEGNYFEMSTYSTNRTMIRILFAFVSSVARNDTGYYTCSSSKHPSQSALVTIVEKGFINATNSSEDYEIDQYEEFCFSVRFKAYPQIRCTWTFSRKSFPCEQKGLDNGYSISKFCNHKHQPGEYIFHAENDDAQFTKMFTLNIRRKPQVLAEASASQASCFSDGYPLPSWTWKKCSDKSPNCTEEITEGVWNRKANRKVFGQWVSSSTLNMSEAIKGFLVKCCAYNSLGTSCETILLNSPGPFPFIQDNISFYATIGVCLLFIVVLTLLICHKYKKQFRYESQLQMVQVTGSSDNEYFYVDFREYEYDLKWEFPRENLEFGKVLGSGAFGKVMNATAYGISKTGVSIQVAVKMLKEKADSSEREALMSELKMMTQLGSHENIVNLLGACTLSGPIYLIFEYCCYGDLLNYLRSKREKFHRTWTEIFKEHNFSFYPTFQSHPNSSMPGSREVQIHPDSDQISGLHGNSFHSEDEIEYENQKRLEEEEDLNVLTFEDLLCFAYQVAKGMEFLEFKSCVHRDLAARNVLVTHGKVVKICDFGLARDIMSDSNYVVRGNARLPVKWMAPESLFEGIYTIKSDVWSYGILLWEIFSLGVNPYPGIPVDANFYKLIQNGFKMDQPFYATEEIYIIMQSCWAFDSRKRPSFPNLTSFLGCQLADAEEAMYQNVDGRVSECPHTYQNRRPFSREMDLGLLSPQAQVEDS
Summary of the method: (§1)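 Recombinant FLT3 mutant kinases phosphorylate biotin-poly(Glu4-Tyr) peptide (30 nM) at 10 μM ATP for D835Y or 100 μM for ITD. Phosphorylation detected by AlphaScreen: streptavidin donor beads (20 min) then anti-phosphotyrosine PY20 acceptor beads (60 min, RT), signal at 580 nm; inhibition lowers signal.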

c-Kit = c-Kit (Homo sapiens, UniProt P10721); assay: c-Kit biochemical assay (per US 2007/0032519)
Method: The following Table 2 provides data indicating FLT3 ITD, FLT3 D835Y, and KIT biochemical activity, and BaF3 FLT3 ITD/F69L cellular inhibitory activity for exemplary compounds described in this disclosure. In the table below, activity is provided as follows: +++=0.0001<IC50<1 μM; ++=1 μM<IC50<10 μM, +=10 μM<IC50<200 μM. Assays for the biochemical activity of c-Kit and FMS were conducted according to those assays described in US Patent Application Publication number US 2007/0032519, the disclosure of which is hereby incorporated by reference in its entirety.

FLT3-D835Y = target: T2, FLT3-D835Y (Homo sapiens, UniProt P36888, D835Y); assay: FLT3-D835Y biochemical kinase assay (AlphaScreen)
T2 construct: purchased Invitrogen PV3967
T2 sequence (P36888 27-993 D835Y): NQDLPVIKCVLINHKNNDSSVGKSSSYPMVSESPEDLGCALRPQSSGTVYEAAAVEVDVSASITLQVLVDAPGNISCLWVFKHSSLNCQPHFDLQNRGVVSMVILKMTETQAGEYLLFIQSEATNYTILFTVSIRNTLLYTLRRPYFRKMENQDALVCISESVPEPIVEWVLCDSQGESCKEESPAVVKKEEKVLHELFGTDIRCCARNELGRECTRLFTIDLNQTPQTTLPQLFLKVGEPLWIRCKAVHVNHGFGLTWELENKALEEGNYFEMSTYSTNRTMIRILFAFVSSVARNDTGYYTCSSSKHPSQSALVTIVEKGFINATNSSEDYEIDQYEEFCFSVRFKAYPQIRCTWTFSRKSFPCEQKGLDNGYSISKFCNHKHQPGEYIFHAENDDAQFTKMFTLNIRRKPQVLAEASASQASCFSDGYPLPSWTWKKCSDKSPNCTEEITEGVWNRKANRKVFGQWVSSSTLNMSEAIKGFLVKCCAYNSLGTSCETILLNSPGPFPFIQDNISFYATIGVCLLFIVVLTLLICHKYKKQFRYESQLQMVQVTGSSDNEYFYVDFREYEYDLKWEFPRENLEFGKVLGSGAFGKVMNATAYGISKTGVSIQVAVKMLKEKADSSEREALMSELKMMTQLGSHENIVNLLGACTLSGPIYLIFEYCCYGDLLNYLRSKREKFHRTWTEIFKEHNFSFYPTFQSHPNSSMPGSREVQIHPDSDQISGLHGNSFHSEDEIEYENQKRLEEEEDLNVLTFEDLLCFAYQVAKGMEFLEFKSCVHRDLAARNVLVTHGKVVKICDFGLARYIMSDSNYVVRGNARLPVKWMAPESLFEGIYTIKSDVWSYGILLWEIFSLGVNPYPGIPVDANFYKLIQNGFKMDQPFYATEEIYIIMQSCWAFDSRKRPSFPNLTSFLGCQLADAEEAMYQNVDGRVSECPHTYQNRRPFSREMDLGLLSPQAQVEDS
Summary of the method: as §1

c-Kit, sequence (P10721 26-976): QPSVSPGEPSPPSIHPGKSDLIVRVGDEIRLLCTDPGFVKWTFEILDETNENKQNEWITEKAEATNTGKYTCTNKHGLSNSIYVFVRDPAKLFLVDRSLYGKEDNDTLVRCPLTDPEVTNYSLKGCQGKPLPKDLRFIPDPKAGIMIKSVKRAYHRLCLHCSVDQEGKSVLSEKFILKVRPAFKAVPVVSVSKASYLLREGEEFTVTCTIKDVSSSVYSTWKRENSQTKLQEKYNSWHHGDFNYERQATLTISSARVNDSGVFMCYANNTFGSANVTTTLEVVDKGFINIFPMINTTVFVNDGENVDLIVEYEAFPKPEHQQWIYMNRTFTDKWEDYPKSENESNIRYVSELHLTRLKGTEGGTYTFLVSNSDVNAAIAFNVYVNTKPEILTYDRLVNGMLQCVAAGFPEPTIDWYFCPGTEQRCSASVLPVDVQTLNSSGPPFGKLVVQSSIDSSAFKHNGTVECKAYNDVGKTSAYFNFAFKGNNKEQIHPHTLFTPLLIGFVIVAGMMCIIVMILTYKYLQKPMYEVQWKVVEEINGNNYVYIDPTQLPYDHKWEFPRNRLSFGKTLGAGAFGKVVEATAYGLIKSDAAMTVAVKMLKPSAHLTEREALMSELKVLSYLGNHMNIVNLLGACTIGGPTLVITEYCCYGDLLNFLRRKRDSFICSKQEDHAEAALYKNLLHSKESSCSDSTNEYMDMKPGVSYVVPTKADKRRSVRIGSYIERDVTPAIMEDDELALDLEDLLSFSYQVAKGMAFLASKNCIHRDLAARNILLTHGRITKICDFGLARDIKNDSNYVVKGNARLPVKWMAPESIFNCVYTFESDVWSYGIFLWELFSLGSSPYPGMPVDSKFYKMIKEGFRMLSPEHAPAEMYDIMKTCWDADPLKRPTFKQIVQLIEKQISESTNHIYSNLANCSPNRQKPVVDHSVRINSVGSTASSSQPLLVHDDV

| IC50 (FLT3-ITD) [µM] | IC50 (c-Kit) [µM] | IC50 (FLT3-D835Y) [µM] | Structure (SMILES) |
| --- | --- | --- | --- |
| 0.0001 to 1 | 1 to 10 | – | CC(C)(C)n1cnc2ccc(-c3c[nH]c4ncc(-c5cnc(NS(C)(=O)=O)nc5)nc34)cc21 [P-404, N-[5-[7-(3-tert-butylbenzimidazol-5-yl)-5H-pyrrolo[2,3-b]pyrazin-2-yl]pyrimidin-2-yl]methanesulfonamide] |
| 0.0001 to 1 | 1 to 10 | 0.0001 to 1 | O=C(C1CC1)N1CC=C(c2cnc3[nH]cc(-c4ccc5ncn(CC(F)(F)F)c5c4)c3n2)C1 [P-125, cyclopropyl-[3-[7-[3-(2,2,2-trifluoroethyl)benzimidazol-5-yl]-5H-pyrrolo[2,3-b]pyrazin-2-yl]-2,5-dihydropyrrol-1-yl]methanone] |
| 0.0001 to 1 | 1 to 10 | – | Cc1nn(C)cc1-c1ccc(-c2cnc3[nH]cc(-c4ccc5ncn(C(C)(C)C)c5c4)c3n2)cc1 [P-323, 7-(3-tert-butylbenzimidazol-5-yl)-2-[4-(1,3-dimethylpyrazol-4-yl)phenyl]-5H-pyrrolo[2,3-b]pyrazine] |
| 0.0001 to 1 | 0.0001 to 1 | 0.0001 to 1 | CC(C)(C)n1cnc2ccc(-c3c[nH]c4ncc(-c5ccc(C(=O)O)nc5)nc34)cc21 [P-376, 5-[7-(3-tert-butylbenzimidazol-5-yl)-5H-pyrrolo[2,3-b]pyrazin-2-yl]pyridine-2-carboxylic acid] |
| 0.0001 to 1 | 0.0001 to 1 | 0.0001 to 1 | Cn1cnc2ccc(-c3c[nH]c4ncc(-c5ccc(S(=O)(=O)N6CCCC6)cc5)cc34)cc21 [P-091, 1-methyl-6-[5-(4-pyrrolidin-1-ylsulfonylphenyl)-1H-pyrrolo[2,3-b]pyridin-3-yl]benzimidazole] |
| 0.0001 to 1 | 10 to 200 | 0.0001 to 1 | O=C(C1CC1)N1CC=C(c2cnc3[nH]cc(-c4ccc5ncn(C6CCCC6)c5c4)c3n2)C1 [P-126, [3-[7-(3-cyclopentylbenzimidazol-5-yl)-5H-pyrrolo[2,3-b]pyrazin-2-yl]-2,5-dihydropyrrol-1-yl]-cyclopropyl-methanone] |
| 0.0001 to 1 | 0.0001 to 1 | 0.0001 to 1 | COc1cc(-c2cnc3[nH]cc(-c4ccc5ncn(C)c5c4)c3c2)ccc1Cl [P-092, 5-(4-chloro-3-methoxy-phenyl)-3-(3-methylbenzimidazol-5-yl)-1H-pyrrolo[2,3-b]pyridine] |
| 0.0001 to 1 | 1 to 10 | – | CC(C)(C)n1cnc2ccc(-c3c[nH]c4ncc(-c5cncc(F)c5)nc34)cc21 [P-386, 7-(3-tert-butylbenzimidazol-5-yl)-2-(5-fluoro-3-pyridyl)-5H-pyrrolo[2,3-b]pyrazine] |
| 0.0001 to 1 | 0.0001 to 1 | – | CC(C)(C)n1cnc2ccc(-c3c[nH]c4ncc(-c5cncc(N6CCOCC6)c5)nc34)cc21 [P-387, 4-[5-[7-(3-tert-butylbenzimidazol-5-yl)-5H-pyrrolo[2,3-b]pyrazin-2-yl]-3-pyridyl]morpholine] |
| 0.0001 to 1 | 10 to 200 | – | CC(C)(C)n1cnc2ccc(-c3c[nH]c4ncc(-c5cnc(Cl)nc5)nc34)cc21 [P-389, 7-(3-tert-butylbenzimidazol-5-yl)-2-(2-chloropyrimidin-5-yl)-5H-pyrrolo[2,3-b]pyrazine] |
| 0.0001 to 1 | 0.0001 to 1 | – | Cc1nn(C)cc1-c1cnc2[nH]cc(-c3ccc4ncn(C(C)(C)C)c4c3)c2n1 [P-324, 7-(3-tert-butylbenzimidazol-5-yl)-2-(1,3-dimethylpyrazol-4-yl)-5H-pyrrolo[2,3-b]pyrazine] |

The remaining lines, values behind:

| Structure (SMILES) | IC50 (FLT3-ITD) [µM] | IC50 (c-Kit) [µM] | IC50 (FLT3-D835Y) [µM] |
| --- | --- | --- | --- |
| Nc1nc2cc(-c3c[nH]c4ncccc34)ccc2[nH]1 [P-010, 5-(1H-pyrrolo[2,3-b]pyridin-3-yl)-1H-benzimidazol-2-amine] | 1 to 10 | 10 to 200 | 1 to 10 |
| CC(C)N1CCOc2ccc(-c3c[nH]c4ncc(-c5cccc(NS(C)(=O)=O)c5)nc34)cc21 [P-086, N-[3-[7-(4-isopropyl-2,3-dihydro-1,4-benzoxazin-6-yl)-5H-pyrrolo[2,3-b]pyrazin-2-yl]phenyl]methanesulfonamide] | 0.0001 to 1 | 10 to 200 | 0.0001 to 1 |
| COc1cnc2[nH]cc(-c3ccc4ncnc(OC)c4c3)c2c1 [P-043, 4-methoxy-6-(5-methoxy-1H-pyrrolo[2,3-b]pyridin-3-yl)quinazoline] | 0.0001 to 1 | 1 to 10 | 0.0001 to 1 |
| CS(=O)(=O)Nc1cccc(-c2cnc3[nH]cc(-c4ccc5[nH]cnc5c4)c3c2)c1 [P-013, N-[3-[3-(1H-benzimidazol-5-yl)-1H-pyrrolo[2,3-b]pyridin-5-yl]phenyl]methanesulfonamide] | 0.0001 to 1 | 1 to 10 | 0.0001 to 1 |
| Cn1cnc2ccc(-c3c[nH]c4ncc(OCC#N)cc34)cc21 [P-084, 2-[[3-(3-methylbenzimidazol-5-yl)-1H-pyrrolo[2,3-b]pyridin-5-yl]oxy]acetonitrile] | 0.0001 to 1 | 1 to 10 | 0.0001 to 1 |
| CN1CCOc2ccc(-c3c[nH]c4ncc(-c5cccc(NS(C)(=O)=O)c5)nc34)cc21 [P-065, N-[3-[7-(4-methyl-2,3-dihydro-1,4-benzoxazin-6-yl)-5H-pyrrolo[2,3-b]pyrazin-2-yl]phenyl]methanesulfonamide] | 0.0001 to 1 | 10 to 200 | 0.0001 to 1 |
| CC1(COc2cnc3[nH]cc(-c4ccc5[nH]cnc5c4)c3c2)COC1 [P-008, 3-(1H-benzimidazol-5-yl)-5-[(3-methyloxetan-3-yl)methoxy]-1H-pyrrolo[2,3-b]pyridine] | 0.0001 to 1 | 1 to 10 | 1 to 10 |
| COc1cnc2[nH]cc(-c3ccc4ncn(C(C)C)c4c3)c2c1 [P-050, 1-isopropyl-6-(5-methoxy-1H-pyrrolo[2,3-b]pyridin-3-yl)benzimidazole] | 0.0001 to 1 | 10 to 200 | – |
| CS(=O)(=O)Nc1cccc(-c2cnc3[nH]cc(-c4ccc5ncsc5c4)c3n2)c1 [P-054, N-[3-[7-(1,3-benzothiazol-6-yl)-5H-pyrrolo[2,3-b]pyrazin-2-yl]phenyl]methanesulfonamide] | 0.0001 to 1 | 1 to 10 | 0.0001 to 1 |
| Cc1nc2cc(-c3c[nH]c4ncccc34)ccc2[nH]1 [P-012, 2-methyl-5-(1H-pyrrolo[2,3-b]pyridin-3-yl)-1H-benzimidazole] | 1 to 10 | 10 to 200 | 1 to 10 |
| Nc1n[nH]c2ccc(-c3c[nH]c4ncccc34)cc12 [P-006, 5-(1H-pyrrolo[2,3-b]pyridin-3-yl)-1H-indazol-3-amine] | 1 to 10 | 1 to 10 | – |
